The values that follow come from ChEMBL document CHEMBL3272273, “Synthesis and pharmacological activity and some derivatives of 1-phenyl-1,2,3,4-tetrahydro-5H-1,4-benzodiazepin-5-one” (J Med Chem, 1978).

The test system of data set [1] is Mus musculus. In words: Toxicity in ip dosed mouse assessed as sedative action. The settings on record: in vivo. The class given is organism-based.
Data set [2] is described as follows: Antitrypatamine activity in isolated Wistar rat caudal artery assessed as dose required to decrease 20 to 50% of […]-induced effect per 6 mL/min after 15 mins. The class given is functional.
The subject of data set [3] is Ileum. Nature of the data set: Antiacetylcholine activity in guinea pig ileum assessed as dose required to decrease 50 to 100% of acetylcholine-induced effect treated 5 mins before acetylcholine addition. The class given is functional, Cavia porcellus.
In data set [4] the test system is Mus musculus. In words: Toxicity in albino mouse assessed as translatory movements at 10 mg/kg, ip relative to control. The data set is classed as organism-based. Also on record: dose 10 mg/kg, route intraperitoneal. To be noted: in vivo.
Data set [5] concerns Mus musculus. Nature of the data set: Anticonvulsant activity in ip dosed albino mouse assessed as dose causing total prevention of maximal electroshock-induced maximal extensor seizure. The class given is functional. (In general: Protection in the maximal electroshock model is a classic sign of anticonvulsant action.)
The subject of data set [6] is Mus musculus. Nature of the data set: Neurotoxicity in albino mouse at 10 mg/kg, po up to 5 mins by rotorod test relative to control. The class given is toxicity, organism-based. Further details: dose 10 mg/kg, route oral. The settings on record: in vivo. On the technique in general: Falling from the rotarod earlier than controls is read as motor impairment.
A short description of data set [7]: Antinoradrenaline activity in isolated Wistar rat caudal artery assessed as dose required to decrease 20 to 50% of noradrenaline-induced effect per 6 mL/min after 15 mins. The data set is classed as functional.
Data set [8] relates to Ileum. Nature of the data set: Antihistamine activity in guinea pig ileum assessed as dose required to decrease 50 to 100% of histamine induced effect treated 5 mins before histamine addition. The data set is classed as functional, Cavia porcellus.
The nature of data set [9]: Acute toxicity in ip dosed albino mouse measured within 24 hrs. The class given is organism-based. To be noted: in vivo.

As to `CNC1=Nc2ccc(Cl)cc2C(c2ccccc2)=[N+]([O-])C1` [CHLORDIAZEPOXIDE], the Activity result in [1] is “Non-toxic”; in data set [2], 20 µg/min; in [3] it was 3 µg/mL; in data set [4], -40%; in data set [5], 90 mg/kg; in data set [6] it was -50%. The Activity in [7] stood at 18 µg/min; in data set [8], 3 µg/mL. Further, in data set [9], the LD50 at 24 h was found to be 780 mg/kg.

Broadly, the LD50 is the dose expected to kill half of the subjects tested. Read a low LD50 as greater toxicity.
